Experimental data as given in patent publication USRE30560E, “Oxazolidinedione derivatives of Vinca alkaloids” (Eli Lilly and Company, priority 1979, dated 1981).

Columns and labels:
[1] = system: Gardner lymphosarcoma (GLS); test: Percent inhibition of transplanted Gardner lymphosarcoma (GLS) in mice; assay type: in vivo; conditions: for inhibitory activity orally / oral activity: oral; for inhibitory activity orally: 6-7 mg./kg. (3"-methyl) and 3-6 mg./kg. (3"-(β-chloroethyl)); for oral activity: 2 (VLB) and 2-4.5 (vincristine) mg./kg.
Method: (§1) The following table--Table 1--gives the results of several experiments in which mice bearing transplanted tumors were treated successfully with a compound of this invention. In the table, column 1 gives the name of the compound; column 2, the transplanted tumor; column 3, the dose level or dose level range and the number of days the dosage was administered; column 4, the route of administration, and column 5, the percent inhibition of tumor growth or percent prolongation of survival time, e.g., B16 and P388. (ROS is an abbreviation for Ridgeway osteogenic sarcoma; GLS for Gardner lymphosarcoma; P1534(J) and P388 are leukemias; CA755 is an adenocarcinoma; and B16 is a melamoma).

[2] = humans; compared with vincristine; cited from earlier work
leukemias = conditions: humans; cited from earlier work
transplanted tumors [3] = conditions: C-3 amides; cited from earlier work
P1534(J) = test: Percent inhibition, mice bearing transplanted P1534(J) leukemia; assay type: in vivo
Method: as §1

B16 = test: Percent prolongation of survival time, mice bearing transplanted B16 melanoma; assay type: in vivo
Method: as §1

CA755 = test: Percent inhibition of transplanted CA755 adenocarcinoma in mice; assay type: in vivo; conditions: for inhibitory activity orally / oral activity: oral; for inhibitory activity orally: 6-7 mg./kg. (3"-methyl) and 3-6 mg./kg. (3"-(β-chloroethyl)); for oral activity: 2 (VLB) and 2-4.5 (vincristine) mg./kg.
Method: as §1

[4] = system: Ridgeway osteogenic sarcoma (ROS); test: Percent inhibition of transplanted Ridgeway osteogenic sarcoma (ROS) in mice; assay type: in vivo; conditions: for inhibitory activity orally / oral activity: oral; for inhibitory activity orally: 6-7 mg./kg. (3"-methyl) and 3-6 mg./kg. (3"-(β-chloroethyl)); for oral activity: 2 (VLB) and 2-4.5 (vincristine) mg./kg.
Method: as §1

[5] = Toxicity on oral administration in tumor-bearing animals; assay type: in vivo, experimental animals; conditions: above 2 (VLB) and 2-4.5 (vincristine) mg./kg.
transplanted tumors [6] = test: Activity against transplanted tumors in mice (general statements); assay type: in vivo; conditions: for activity by the oral route: same tumors in experimental animals; for dose level showing comparable tumor inhibition or prolongation of life: parenteral, intraperitoneal route
Method: as §1

SMILES: CC[C@]1(O)C[C@@H]2CN(CCc3c([nH]c4ccccc34)[C@@](C(=O)OC)(c3cc4c(cc3OC)N(C)[C@H]3[C@]5(OC(=O)N(C)C5=O)[C@H](OC(=O)NC)[C@]5(CC)C=CCN6CC[C@]43[C@@H]65)C2)C1 [4-desacetyl VLB 3"-methyl-3-spiro-5"-oxazolidine-2",4"-dione-4-(N-methyl)carbamate]
- Percent Inhibition ([1]; 0.1-2.5 mg./kg. × 7-9 days, IP): 40-100%

SMILES: CC[C@]1(O)C[C@@H]2CN(CCc3c([nH]c4ccccc34)[C@@](C(=O)OC)(c3cc4c(cc3OC)N(C)[C@H]3[C@@](O)(C(N)=O)[C@H](O)[C@]5(CC)C=CCN6CC[C@]43[C@@H]65)C2)C1 [vindesine, 4-desacetyl VLB C-3 carboxamide]
- neurotoxicity [2]: less neurotoxicity than does vincristine
- activity in the treatment of leukemias (leukemias): active in certain leukemias

SMILES: CC[C@]1(O)C[C@@H]2CN(CCc3c([nH]c4ccccc34)[C@@](C(=O)OC)(c3cc4c(cc3OC)N(C)[C@H]3[C@@](O)(C(=O)NCCS)[C@H](O)[C@]5(CC)C=CCN6CC[C@]43[C@@H]65)C2)C1 [C-3 N-(β-mercaptoethyl)carboxamide of 4-desacetyl VLB]
- anti-tumor activity in mice (transplanted tumors [3]): highly effective anti-tumor agent in mice

SMILES: C=CCN1C(=O)O[C@]2(C1=O)[C@H](OC(C)=O)[C@]1(CC)C=CCN3CC[C@@]4(c5cc([C@@]6(C(=O)OC)C[C@H]7CN(CCc8c6[nH]c6ccccc86)C[C@](O)(CC)C7)c(OC)cc5N(C)[C@@H]24)[C@@H]31 [VLB 3"-allyl-3-spiro-5"-oxazolidine-2",4"-dione]
- Percent Inhibition ([1]; 2.5 mg./kg. × 7 days, IP): 35%

SMILES: CC[C@]1(O)C[C@@H]2CN(CCc3c([nH]c4ccccc34)[C@@](C(=O)OC)(c3cc4c(cc3OC)N(C)[C@H]3[C@]5(OC(=O)N(CCCl)C5=O)[C@H](OC(C)=O)[C@]5(CC)C=CCN6CC[C@]43[C@@H]65)C2)C1 [VLB 3"-(β-chloroethyl)-3-spiro-5"-oxazolidine-2",4"-dione]
- Percent Inhibition ([1]; 0.65 mg./kg. × 10 days, IP): 47%
- Percent Inhibition ([1]; 0.5-0.6 mg./kg. × 9-10 days, IP): 50-74%
- Percent Inhibition ([1]; 3-4 mg./kg. × 9 days, PO): 92-100%
- inhibitory activity orally [1]: 100%
- Percent Inhibition or Prolongation of Survival Time (P1534(J); 3.5 mg./kg. × 8 days, PO): 100%
- Percent Inhibition or Prolongation of Survival Time (P1534(J); 0.4-0.6 mg./kg. × 10 days, IP): 61-86%
- Percent Prolongation of Survival Time (B16; 0.4-0.6 mg./kg. × 10 days, IP): 25-178%
- indefinite survivors (survived for 60 days till end of trial) (B16; 0.4-0.6 mg./kg. × 10 days, IP): 5
- Percent Inhibition (CA755; 0.75-1.0 mg./kg. × 10 days, IP): 53%
- Percent Inhibition (CA755; 3-5 mg./kg. × 9-10 days, PO): 59-92%
- inhibitory activity orally (CA755): 100%
- inhibitory activity orally [4]: 100%

SMILES: CC[C@]1(O)C[C@@H]2CN(CCc3c([nH]c4ccccc34)[C@@](C(=O)OC)(c3cc4c(cc3OC)N(C)[C@H]3[C@]5(OC(=O)N(C)C5=O)[C@H](OC(C)=O)[C@]5(CC)C=CCN6CC[C@]43[C@@H]65)C2)C1 [VLB 3"-methyl-3-spiro-5"-oxazolidine-2",4"-dione]
- Percent Inhibition ([1]; 0.6 mg./kg. × 7 days, IP): 100%
- Percent Inhibition ([1]; 1.25 mg./kg. × 9 days, IP): 100%
- Percent Inhibition ([1]; 3-4 mg./kg. × 10 days, PO): 100%
- Percent Inhibition ([1]; 3-5 mg./kg. × 10 days, PO): 37-56%
- inhibitory activity orally [1]: 100%
- Percent Inhibition or Prolongation of Survival Time (P1534(J); 3-4 mg./kg. × 8 days, PO): 100%
- Percent Inhibition or Prolongation of Survival Time (P1534(J); .5-.6 mg./kg. × 10 days, IP): 100%
- Percent Prolongation of Survival Time (B16; 4.5 mg./kg. × 10 days, IP (so in the source)): 49-91%
- indefinite survivors (survived for 60 days till end of trial) (B16; 0.5-0.6 mg./kg. × 10 days, IP): 3
- Percent Inhibition (CA755; 0.5-1.0 mg./kg. × 10 days, IP): 45-100%
- inhibitory activity orally (CA755): 100%
- Percent Inhibition ([4]; 5-7 mg./kg. × 10 days, PO): 38-59%
- inhibitory activity orally [4]: 100%

SMILES: CC[C@]1(O)C[C@@H]2CN(CCc3c([nH]c4ccccc34)[C@@](C(=O)OC)(c3cc4c(cc3OC)N(C=O)[C@H]3[C@]5(OC(=O)N(C)C5=O)[C@H](OC(C)=O)[C@]5(CC)C=CCN6CC[C@]43[C@@H]65)C2)C1 [Vincristine 3"-methyl-3-spiro-5"-oxazolidine-2",4"-dione]
- Percent Inhibition ([1]; 1.0 mg./kg. × 7 days, IP): 61%

SMILES: CC[C@]1(O)C[C@@H]2CN(CCc3c([nH]c4ccccc34)[C@@](C(=O)OC)(c3cc4c(cc3OC)N(C)[C@H]3[C@]5(OC(=O)N(C)C5=O)[C@H](O)[C@]5(CC)C=CCN6CC[C@]43[C@@H]65)C2)C1 [4-desacetyl VLB 3"-methyl-3-spiro-5"-oxazolidone-2",4"-dione]
- Percent Inhibition ([1]; 2.5 mg./kg. × 7 days, IP): 27%

SMILES: CC[C@]1(O)C[C@H]2CN(CCc3c([nH]c4ccccc34)[C@@](C(=O)OC)(c3cc4c(cc3OC)N(C=O)[C@H]3[C@@](O)(C(=O)OC)[C@H](OC(C)=O)[C@]5(CC)C=CCN6CC[C@]43[C@@H]65)C2)C1 [vincristine, leurocristine]
- toxicity at higher levels [5]: usually are toxic at higher levels
- oral activity [1]: only marginally active, if at all
- oral activity (CA755): only marginally active, if at all
- activity in the treatment of leukemias (leukemias): most active and useful agent in the treatment of leukemias
- activity by the oral route (transplanted tumors [6]): do not show this degree of oral activity
- dose level showing comparable tumor inhibition or prolongation of life (transplanted tumors [6]): 0.2 to 0.25 mg/kg
- oral activity [4]: only marginally active, if at all

SMILES: CC[C@]1(O)C[C@@H]2CN(CCc3c([nH]c4ccccc34)[C@@](C(=O)OC)(c3cc4c(cc3OC)N(C)[C@H]3[C@@](O)(C(=O)OC)[C@H](OC(C)=O)[C@]5(CC)C=CCN6CC[C@]43[C@@H]65)C2)C1 [VLB, vincaleukoblastine, reference compound]
- toxicity at higher levels [5]: usually are toxic at higher levels
- oral activity [1]: only marginally active, if at all
- oral activity (CA755): only marginally active, if at all
- activity by the oral route (transplanted tumors [6]): do not show this degree of oral activity
- dose level showing comparable tumor inhibition or prolongation of life (transplanted tumors [6]): 0.4 to 0.45 mg/kg
- oral activity [4]: only marginally active, if at all
